Active and inactive are the calls of the source.
What was measured:
[1] = biological target: DNA dC->dU-editing enzyme APOBEC-3G (Homo sapiens, UniProt Q9HC16); assay: Dose Response confirmation of small molecule APOBEC3G DNA Deaminase Inhibitors via a fluorescence-based single-stranded DNA deaminase assay. [Related pubchem assays (depositor defined):AID493012, AID493028]; assay type: functional
[2] = biological target: T1, Microphthalmia-associated transcription factor (Homo sapiens, UniProt O75030); assay: reducers of TRPM1 reporter luminescence, concentration series – cell-based, SK-MEL-5, cherry-picked, set 3, MITF inhibitor project, dose response (AID 493073); assay type: functional;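 also: SK-MEL-5 melanoma cells with luciferase driven by the MITF target TRPM1 promoter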
T1 sequence (O75030 whole entry): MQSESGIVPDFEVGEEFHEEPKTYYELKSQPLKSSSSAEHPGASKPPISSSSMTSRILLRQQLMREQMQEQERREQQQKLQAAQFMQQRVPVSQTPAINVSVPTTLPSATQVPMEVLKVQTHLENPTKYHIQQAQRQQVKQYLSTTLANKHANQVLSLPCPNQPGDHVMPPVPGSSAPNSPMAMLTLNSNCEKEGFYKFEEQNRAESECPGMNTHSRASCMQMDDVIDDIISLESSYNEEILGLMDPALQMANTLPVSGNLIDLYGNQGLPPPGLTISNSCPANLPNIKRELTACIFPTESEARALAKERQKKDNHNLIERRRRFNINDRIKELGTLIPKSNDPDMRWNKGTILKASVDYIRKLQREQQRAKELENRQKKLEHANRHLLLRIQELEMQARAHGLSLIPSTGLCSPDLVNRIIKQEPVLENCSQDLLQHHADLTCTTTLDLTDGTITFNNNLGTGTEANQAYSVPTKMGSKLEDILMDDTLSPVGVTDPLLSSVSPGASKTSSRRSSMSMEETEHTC

[3] = biological target: Tumor necrosis factor (Homo sapiens, UniProt P01375); assay: analog potency on TNFa NF-kB signaling – cell-based, revised, SAR follow-up (AID 2337); assay type: functional
Sequence of Tumor necrosis factor (P01375 whole entry, the tested form may be a part): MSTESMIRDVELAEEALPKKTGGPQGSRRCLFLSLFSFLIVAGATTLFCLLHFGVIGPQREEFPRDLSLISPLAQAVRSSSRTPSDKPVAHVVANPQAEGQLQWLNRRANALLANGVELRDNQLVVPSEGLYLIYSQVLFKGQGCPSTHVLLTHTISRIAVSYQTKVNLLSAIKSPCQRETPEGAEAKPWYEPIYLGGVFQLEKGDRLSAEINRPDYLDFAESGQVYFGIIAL

[4] = biological target: T2, Nucleotide-binding oligomerization domain-containing protein 1 (Homo sapiens, UniProt Q9Y239); assay: blockers of NOD1 pathway activity – revised, SAR follow-up (AID 2333); assay type: functional
T2 sequence (Q9Y239 whole entry): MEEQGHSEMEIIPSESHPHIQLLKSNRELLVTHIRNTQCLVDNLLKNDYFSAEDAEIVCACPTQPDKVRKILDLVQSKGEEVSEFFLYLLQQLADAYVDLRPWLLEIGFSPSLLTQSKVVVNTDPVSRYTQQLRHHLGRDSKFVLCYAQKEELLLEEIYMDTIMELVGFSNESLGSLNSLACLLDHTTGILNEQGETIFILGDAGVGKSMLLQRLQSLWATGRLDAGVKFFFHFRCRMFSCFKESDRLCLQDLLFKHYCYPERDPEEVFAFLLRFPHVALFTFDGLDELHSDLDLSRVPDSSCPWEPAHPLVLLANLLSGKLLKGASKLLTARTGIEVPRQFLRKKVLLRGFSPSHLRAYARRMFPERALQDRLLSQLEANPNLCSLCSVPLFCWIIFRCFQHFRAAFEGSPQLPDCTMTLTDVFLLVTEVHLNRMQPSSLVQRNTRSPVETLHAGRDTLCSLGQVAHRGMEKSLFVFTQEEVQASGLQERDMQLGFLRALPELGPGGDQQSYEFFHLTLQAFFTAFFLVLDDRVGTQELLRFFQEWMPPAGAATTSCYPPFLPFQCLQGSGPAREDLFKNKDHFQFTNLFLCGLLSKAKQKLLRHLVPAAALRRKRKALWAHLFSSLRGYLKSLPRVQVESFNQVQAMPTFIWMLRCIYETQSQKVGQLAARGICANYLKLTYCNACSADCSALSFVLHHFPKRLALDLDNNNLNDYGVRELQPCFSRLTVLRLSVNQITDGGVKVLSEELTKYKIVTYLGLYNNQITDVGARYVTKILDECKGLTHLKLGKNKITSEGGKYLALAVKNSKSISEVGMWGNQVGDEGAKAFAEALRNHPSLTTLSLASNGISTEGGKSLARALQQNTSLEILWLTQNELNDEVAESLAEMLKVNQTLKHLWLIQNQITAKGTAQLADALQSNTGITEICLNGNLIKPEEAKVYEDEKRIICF

[5] = tested on: HEK293; assay: cells; settings: Homo sapiens;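 also: cells exposed to compound for 14 hours overnight before viability readout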
[6] = biological target: Genome polyprotein (dengue virus type 2, UniProt P29990); assay: flavivirus cap methylation enzyme inhibition – biochemical, confirmation dose response, primary screen (AID 588689); assay type: functional
Sequence of Genome polyprotein (P29990 2492-3391 limits assumed): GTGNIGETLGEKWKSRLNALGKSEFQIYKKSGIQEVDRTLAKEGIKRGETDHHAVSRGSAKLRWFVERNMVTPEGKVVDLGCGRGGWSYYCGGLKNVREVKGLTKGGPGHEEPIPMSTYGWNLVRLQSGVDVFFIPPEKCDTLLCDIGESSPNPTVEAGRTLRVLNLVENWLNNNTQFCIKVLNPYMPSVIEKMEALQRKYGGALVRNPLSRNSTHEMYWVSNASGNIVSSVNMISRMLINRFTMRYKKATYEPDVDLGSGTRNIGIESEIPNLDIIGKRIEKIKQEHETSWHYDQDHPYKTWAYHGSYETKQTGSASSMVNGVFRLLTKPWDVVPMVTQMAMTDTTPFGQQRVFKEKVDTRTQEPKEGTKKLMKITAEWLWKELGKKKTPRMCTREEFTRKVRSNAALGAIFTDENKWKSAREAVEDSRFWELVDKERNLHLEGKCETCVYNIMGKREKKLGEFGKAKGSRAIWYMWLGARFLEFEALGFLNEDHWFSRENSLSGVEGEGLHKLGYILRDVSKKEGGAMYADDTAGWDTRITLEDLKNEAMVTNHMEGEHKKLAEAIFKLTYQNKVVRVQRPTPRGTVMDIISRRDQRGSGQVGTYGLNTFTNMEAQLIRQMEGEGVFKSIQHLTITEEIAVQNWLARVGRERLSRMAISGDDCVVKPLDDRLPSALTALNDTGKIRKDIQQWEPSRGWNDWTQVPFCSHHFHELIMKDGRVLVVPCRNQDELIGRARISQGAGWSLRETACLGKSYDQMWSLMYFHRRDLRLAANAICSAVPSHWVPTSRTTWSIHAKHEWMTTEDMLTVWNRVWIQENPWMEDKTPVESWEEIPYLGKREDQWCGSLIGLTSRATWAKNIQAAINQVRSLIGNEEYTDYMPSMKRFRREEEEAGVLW

[7] = biological target: Cytochrome P450 2D6 (Homo sapiens, UniProt P10635);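 also: CYP2D6 member of a cytochrome P450 panel assay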
Sequence of Cytochrome P450 2D6 (P10635 whole entry): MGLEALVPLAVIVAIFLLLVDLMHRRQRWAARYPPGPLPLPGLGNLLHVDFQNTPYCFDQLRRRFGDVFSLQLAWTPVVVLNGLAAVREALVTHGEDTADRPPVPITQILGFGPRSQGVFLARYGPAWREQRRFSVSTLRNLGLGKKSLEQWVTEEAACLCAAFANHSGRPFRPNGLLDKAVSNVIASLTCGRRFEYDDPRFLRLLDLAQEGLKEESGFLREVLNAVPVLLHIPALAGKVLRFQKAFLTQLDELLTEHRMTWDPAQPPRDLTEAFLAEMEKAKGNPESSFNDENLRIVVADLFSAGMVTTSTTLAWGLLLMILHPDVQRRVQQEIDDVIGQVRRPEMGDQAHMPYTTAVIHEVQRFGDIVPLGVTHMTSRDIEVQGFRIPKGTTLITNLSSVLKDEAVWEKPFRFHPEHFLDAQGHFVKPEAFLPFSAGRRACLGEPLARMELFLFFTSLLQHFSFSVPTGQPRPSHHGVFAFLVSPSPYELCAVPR

[8] = biological target: T3, Short transient receptor potential channel 4 (Mus musculus, UniProt Q9QUQ5); assay: block of DAMGO-driven TRPC4 calcium entry – cell-based, HEK293 TRPC4/mu-opioid, Fluo-4 calcium, dose response (AID 434942); assay type: functional;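 also: potency of inhibitors blocking the TRPC4 calcium response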
T3 sequence (Q9QUQ5 whole entry): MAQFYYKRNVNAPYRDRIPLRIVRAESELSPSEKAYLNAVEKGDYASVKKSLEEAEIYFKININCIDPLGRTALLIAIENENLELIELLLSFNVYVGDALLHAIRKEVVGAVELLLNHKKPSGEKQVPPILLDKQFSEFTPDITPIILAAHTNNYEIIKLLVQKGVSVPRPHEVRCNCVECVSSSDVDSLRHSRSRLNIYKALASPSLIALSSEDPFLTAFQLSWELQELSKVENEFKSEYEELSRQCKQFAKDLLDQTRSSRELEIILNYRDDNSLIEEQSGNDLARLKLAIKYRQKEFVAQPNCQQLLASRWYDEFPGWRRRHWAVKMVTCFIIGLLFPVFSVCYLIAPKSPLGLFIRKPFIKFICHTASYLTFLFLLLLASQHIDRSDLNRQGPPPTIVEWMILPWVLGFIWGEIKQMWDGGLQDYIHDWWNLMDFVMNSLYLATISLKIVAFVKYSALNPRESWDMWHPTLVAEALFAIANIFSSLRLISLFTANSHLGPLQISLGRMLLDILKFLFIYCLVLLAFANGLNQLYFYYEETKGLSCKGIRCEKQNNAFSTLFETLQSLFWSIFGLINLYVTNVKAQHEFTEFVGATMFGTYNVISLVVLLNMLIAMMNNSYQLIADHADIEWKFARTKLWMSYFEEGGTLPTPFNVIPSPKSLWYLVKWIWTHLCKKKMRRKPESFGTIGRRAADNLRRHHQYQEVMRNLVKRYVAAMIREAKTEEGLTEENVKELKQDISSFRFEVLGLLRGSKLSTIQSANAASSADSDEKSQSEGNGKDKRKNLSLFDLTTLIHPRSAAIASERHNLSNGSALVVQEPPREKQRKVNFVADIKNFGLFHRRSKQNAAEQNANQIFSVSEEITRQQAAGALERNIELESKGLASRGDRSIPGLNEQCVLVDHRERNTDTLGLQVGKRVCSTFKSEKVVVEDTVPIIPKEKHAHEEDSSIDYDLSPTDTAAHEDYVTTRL

[9] = HEK-293T viability loss after treatment – luminescence, T-cell screen hits, cytotoxicity control for TCR NF-kB inhibitor project, dose response (AID 489026); assay type: functional, cell-based;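 also: cells exposed to compound about 14 hours before the viability readout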
[10] = biological target: Cytochrome P450 2C19 (Homo sapiens, UniProt P33261); assay: Cytochrome panel assay with activity outcomes. Panel member name: p450-cyp2c19 Compounds with AC50 equal or less than 10 uM are considered active; assay type: functional; settings: read-out: AC50
Sequence of Cytochrome P450 2C19 (P33261 whole entry): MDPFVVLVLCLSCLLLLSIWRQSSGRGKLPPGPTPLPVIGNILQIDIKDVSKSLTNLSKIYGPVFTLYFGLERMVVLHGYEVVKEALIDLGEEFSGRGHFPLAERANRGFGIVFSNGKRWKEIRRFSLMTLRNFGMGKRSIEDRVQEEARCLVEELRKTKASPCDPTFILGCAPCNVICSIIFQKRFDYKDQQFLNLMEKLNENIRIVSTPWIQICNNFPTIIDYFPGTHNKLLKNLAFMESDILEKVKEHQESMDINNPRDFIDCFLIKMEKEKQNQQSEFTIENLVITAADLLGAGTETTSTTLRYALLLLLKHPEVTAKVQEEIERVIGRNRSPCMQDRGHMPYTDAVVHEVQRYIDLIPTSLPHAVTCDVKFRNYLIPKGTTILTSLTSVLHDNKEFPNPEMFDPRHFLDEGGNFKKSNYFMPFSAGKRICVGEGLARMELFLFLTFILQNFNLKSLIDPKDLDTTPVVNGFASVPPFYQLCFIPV

[11] = biological target: Cytochrome P450 2C9 (Homo sapiens, UniProt P11712)
Sequence of Cytochrome P450 2C9 (P11712 whole entry): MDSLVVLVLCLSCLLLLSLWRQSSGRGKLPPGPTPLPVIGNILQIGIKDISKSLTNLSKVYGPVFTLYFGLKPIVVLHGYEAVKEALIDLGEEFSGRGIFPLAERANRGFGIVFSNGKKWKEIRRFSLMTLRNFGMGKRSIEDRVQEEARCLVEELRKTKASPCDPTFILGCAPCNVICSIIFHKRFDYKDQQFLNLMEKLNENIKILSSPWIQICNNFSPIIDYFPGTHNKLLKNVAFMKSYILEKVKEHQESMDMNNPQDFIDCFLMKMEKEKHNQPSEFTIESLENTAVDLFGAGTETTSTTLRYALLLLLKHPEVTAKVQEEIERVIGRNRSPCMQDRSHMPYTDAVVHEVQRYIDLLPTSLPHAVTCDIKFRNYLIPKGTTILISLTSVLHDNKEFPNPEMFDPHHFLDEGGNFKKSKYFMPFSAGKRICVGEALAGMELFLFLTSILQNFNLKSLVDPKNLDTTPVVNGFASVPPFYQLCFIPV

Sequence of DNA dC->dU-editing enzyme APOBEC-3G (Q9HC16 whole entry): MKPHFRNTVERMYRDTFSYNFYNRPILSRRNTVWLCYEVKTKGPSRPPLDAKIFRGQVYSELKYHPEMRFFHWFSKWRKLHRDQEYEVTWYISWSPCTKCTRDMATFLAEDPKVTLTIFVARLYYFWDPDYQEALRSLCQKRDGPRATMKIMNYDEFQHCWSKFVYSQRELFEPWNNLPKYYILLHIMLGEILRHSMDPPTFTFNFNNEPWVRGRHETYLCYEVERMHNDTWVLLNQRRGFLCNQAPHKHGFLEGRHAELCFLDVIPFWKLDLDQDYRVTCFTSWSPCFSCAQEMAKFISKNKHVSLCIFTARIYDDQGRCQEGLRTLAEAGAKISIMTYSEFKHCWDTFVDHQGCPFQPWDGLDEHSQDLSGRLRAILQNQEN

In the case of `Cc1cc(-c2nnc(S)n2/N=C/c2ccco2)[nH]n1`, the IC50 [1] is reported as 14.2 µM (active).

For `COCCn1c(C)cc(C(=O)CSc2nnc(C)s2)c1C`, the AC50 [2] was 3.04 µM (active).

With `C=C(C)C(=O)Nc1cccc(C2=NOC3(C2)C[C@@H](C(N)=O)N(C(=O)[C@H]2CCC(=O)N2)C3)c1` (stereo partly specified) the IC50 [1] was 19.3 µM (active).

For `CCN1CCc2c(sc(NC(=O)c3ccc(S(=O)(=O)N4CCCC4)cc3)c2C(=O)NC)C1`, the AC50 [2] was 9.14 µM (active).

In the case of `CCn1nc(C)cc1C(=O)NC1CCCc2c1cnn2-c1ccc(C)c(C)c1` (stereo unspecified), the IC50 [3] is reported as 4.43 µM (active), the IC50 [4] is reported as 4.76 µM (active) and the IC50 [5] is reported as > 20 µM (inactive).

For `Cc1ccc(/C=C2\SC(=S)N(NS(=O)(=O)c3ccc(C)cc3)C2=O)cc1`, the IC50 [6] was 25.9 µM (active).

For `CC(C)Nc1c([N+](=O)[O-])nn(C)[n+]1[O-]`, the AC50 [2] was 299 µM (active).

For `CCCCN=C(S)NNC(=O)c1sccc1C`, the AC50 [7] was “inconclusive”.

In the case of `OC1(c2ccc(F)cc2)CCN(Cc2ccccc2)C1` (stereo unspecified), the EC50 [8] is reported as 2.99 µM (active).

For `COc1ccc(OC)c(Nc2cc(-c3ccccc3)nc(N)n2)c1`, the EC50 [8] was 4.73 µM (active) and the IC50 [9] was > 80 µM (inactive).

For `Fc1nc(N2CCCC2)c(F)c(Oc2ccccc2Oc2c(F)c(F)nc(N3CCCC3)c2F)c1F`, the AC50 [10] was 5.62 µM (inconclusive), the AC50 [11] was 1 µM (inconclusive) and the AC50 [7] was “inconclusive”.
